Results taken from PubChem BioAssay (NCI).
“And” between values parts separate entries of the source, which are not always exact repeats. Identical values can stand only once.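 Five compound concentrations were applied to cells in 96-well plates for 48 hours; endpoints were derived by simple linear interpolation of the resulting dose-response curve. GI50: concentration for 50% inhibition of growth. The concentration for full growth arrest is given as TGI.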

Tested on: NCI-H23 lung
Assay: DTP human tumour cell line panel, 48 h

Cc1nc(Nc2ccc(Cl)cc2)sc1C(=O)NNC(=S)NN and CC(=O)Nc1ccc(-c2csc(Nc3cccc(-c4csc(C)n4)c3)n2)cc1 cannot be ordered by TGI: 33.4 µM for the first, > 27.7 µM for the second.

CCn1c(O)c(/C=N/NC(=O)C(C)c2ccc(CC(C)C)cc2)sc1=S (configuration not stated) and Cc1ccc(C)c(NC(=O)c2cccc([N+](=O)[O-])c2O)c1 cannot be ordered by TGI: > 41.1 µM for the first, 49 µM for the second.

Compared with C[C@@H]1C[C@@H]([C@@H](CC2CC(=O)NC(=O)C2)OC(=O)CC(=O)c2ccccc2)C(=O)[C@@H](C)C1, CCOC(=O)Nc1cc2c(c(N)n1)N=C(c1ccccc1)CO2 is lower in TGI: > 80.6 µM for the first, 21.4 µM for the second.

Going from N=c1c2c(-c3ccccc3)c(-c3ccccc3)n(Cc3ccccc3)c2ncn1C1CCC(O)CC1 (configuration not stated) to On1c(-c2ccccc2)c(-c2ccccc2N2CCCC2)c2ccccc21, the TGI rises from 22 µM to > 100 µM.

Compared with O=c1c(F)cn(Cc2ccc(C34CC5CC(CC(C5)C3)C4)c(O)c2)c(=O)n1Cc1ccc(C23CC4CC(CC(C4)C2)C3)c(O)c1, O=C(Cc1ccc(F)c(Cl)c1)Nc1cc(C2(C(F)(F)F)CC2)nn1CC1CCCCC1 is 2.7-fold lower in TGI: 32 µM for the first, 12 µM for the second.

Going from CC1CC2CCCC(O)=C2C(=O)O1 (configuration not stated) to CNCCOC(=O)/C=C1\CC[C@H]2[C@@H]([C@@H](O)C(=O)[C@@H]3[C@]2(C)CC[C@H](O)[C@]3(C)C(=O)OC)[C@H]1C, the TGI falls from > 100 µM to 0.644 µM.

Going from CC(C)(/C=C(\C#N)C(=O)N1CCC[C@@H](n2nc(-c3ccc(Oc4ccccc4)cc3F)c3c(N)ncnc32)C1)N1CCN(C2COC2)CC1 to O=c1oc2ccc(-c3ccc(F)cc3F)cc2c(=O)n1-c1cccc(C(F)(F)F)c1, the TGI falls from 30.9 µM to 3.59 µM (8.6-fold).

COC(=O)c1ccc2c(c1)C(=O)c1c-2n(CCCN=[N+]=[N-])c(=O)c2cc(OC)c(OC)cc12 and CCN1CCN(c2cc(C)c3cc(NC(=O)c4ccc(OC)c(OC)c4)ccc3n2)CC1 cannot be ordered by TGI: > 100 µM for the first, > 100 µM for the second.

Going from N#Cc1nn(-c2cc(=O)[nH]c3ccc(Cl)cc23)c(N)c1C#N to COC(=O)c1c2c(c(C)[n+]([O-])c1C)C(=O)C=C(NCc1ccc(F)cc1)C2=O, the TGI falls from > 100 µM to 3.41 µM.

Going from CC(C)(C)c1cc(C(P(=O)(O)O)P(=O)(O)O)cc(C(C)(C)C)c1O to CC(C)C1=Cc2ccc3c(c2C(=O)C1=O)CCCC3(C)C, the TGI falls from > 100 µM to 29.6 µM.

For CSc1nc(SC)c2c(C#N)[nH]nc2n1, the TGI was > 100 µM.

Compared with CCn1c(O)c(/C=N/NC(=O)C(C)c2ccc(CC(C)C)cc2)sc1=S (configuration not stated), CCN1CCN(c2cc(C)c3cc(NC(=O)c4ccc(OC)c(OC)c4)ccc3n2)CC1 is 75-fold higher in GI50: 673 nM for the first, 50500 nM for the second.

C[C@@H]1C[C@@H]([C@@H](CC2CC(=O)NC(=O)C2)OC(=O)CC(=O)c2ccccc2)C(=O)[C@@H](C)C1 and CCOC(=O)Nc1cc2c(c(N)n1)N=C(c1ccccc1)CO2 are within 1.5-fold of each other in GI50: 545 nM for the first, 569 nM for the second.

First: N=c1c2c(-c3ccccc3)c(-c3ccccc3)n(Cc3ccccc3)c2ncn1C1CCC(O)CC1 (configuration not stated)
Second: CC(C)(/C=C(\C#N)C(=O)N1CCC[C@@H](n2nc(-c3ccc(Oc4ccccc4)cc3F)c3c(N)ncnc32)C1)N1CCN(C2COC2)CC1
The GI50 of the first is 13-fold lower: 836 nM for the first, 11000 nM for the second.

First: O=c1c(F)cn(Cc2ccc(C34CC5CC(CC(C5)C3)C4)c(O)c2)c(=O)n1Cc1ccc(C23CC4CC(CC(C4)C2)C3)c(O)c1
Second: O=C(Cc1ccc(F)c(Cl)c1)Nc1cc(C2(C(F)(F)F)CC2)nn1CC1CCCCC1
The GI50 of the first is 4.4-fold higher: 15600 nM for the first, 3520 nM for the second.

Compared with O=c1oc2ccc(-c3ccc(F)cc3F)cc2c(=O)n1-c1cccc(C(F)(F)F)c1, CC(=O)Nc1ccc(-c2csc(Nc3cccc(-c4csc(C)n4)c3)n2)cc1 is 4.8-fold higher in GI50: 687 nM for the first, 3310 nM for the second.

First: COC(=O)c1ccc2c(c1)C(=O)c1c-2n(CCCN=[N+]=[N-])c(=O)c2cc(OC)c(OC)cc12
Second: COC(=O)c1c2c(c(C)[n+]([O-])c1C)C(=O)C=C(NCc1ccc(F)cc1)C2=O
The GI50 of the first is 21-fold higher: 15600 nM for the first, 733 nM for the second.

First: N#Cc1nn(-c2cc(=O)[nH]c3ccc(Cl)cc23)c(N)c1C#N
Second: CNCCOC(=O)/C=C1\CC[C@H]2[C@@H]([C@@H](O)C(=O)[C@@H]3[C@]2(C)CC[C@H](O)[C@]3(C)C(=O)OC)[C@H]1C
The GI50 of the first is higher: > 100000 nM for the first, 245 nM for the second.

In the case of CCCC(=O)Nc1cn(COC)c(C(=O)N2C[C@@H]3C[C@]34C2=CC(=O)c2[nH]cc(C)c24)n1, the TGI is reported as 14.7 µM and 6.4 µM.

Tested on: NCI-H522 lung
Assay: DTP human tumour cell line panel, 48 h

First: CN1CCN(c2ccc(Nc3cc(-c4cccc(-n5ccc6cc(C7CC7)cc(F)c6c5=O)c4CO)cn(C)c3=O)nc2)CC1
Second: CN(C)C1CCN(C(=O)c2ccc(NC(=O)Nc3ccc(-c4nc(N5CCOCC5)c5cccn5n4)cc3)cc2)CC1
The GI50 of the first is 110-fold higher: 4330 nM for the first, 37.7 nM for the second.

First: COc1ccc2nc3ccccc3c(NCc3ccc(F)cc3)c2c1
Second: COc1cc(N=Nc2ccc(O)c3ncccc23)c2ncccc2c1
The GI50 of the first is 2.1-fold lower: 2060 nM for the first, 4260 nM for the second.

Going from CCn1c(O)c(/C=N/NC(=O)C(C)c2ccc(CC(C)C)cc2)sc1=S (configuration not stated) to O=c1c(F)cn(Cc2ccc(C34CC5CC(CC(C5)C3)C4)c(O)c2)c(=O)n1Cc1ccc(C23CC4CC(CC(C4)C2)C3)c(O)c1, the GI50 rises from 277 nM to 15900 nM (57-fold).

C[C@@H]1C[C@@H]([C@@H](CC2CC(=O)NC(=O)C2)OC(=O)CC(=O)c2ccccc2)C(=O)[C@@H](C)C1 and CCOC(=O)Nc1cc2c(c(N)n1)N=C(c1ccccc1)CO2 are within 1.5-fold of each other in GI50: 191 nM for the first, 268 nM for the second.

In the case of N=c1c2c(-c3ccccc3)c(-c3ccccc3)n(Cc3ccccc3)c2ncn1C1CCC(O)CC1 (configuration not stated), the GI50 is reported as 576 nM.

CN1CCN(c2ccc(Nc3cc(-c4cccc(-n5ccc6cc(C7CC7)cc(F)c6c5=O)c4CO)cn(C)c3=O)nc2)CC1 and CN(C)C1CCN(C(=O)c2ccc(NC(=O)Nc3ccc(-c4nc(N5CCOCC5)c5cccn5n4)cc3)cc2)CC1 are within 1.5-fold of each other in TGI: 21 µM for the first, 19.1 µM for the second.

First: COc1ccc2nc3ccccc3c(NCc3ccc(F)cc3)c2c1
Second: COc1cc(N=Nc2ccc(O)c3ncccc23)c2ncccc2c1
The TGI of the first is lower: 9.38 µM for the first, > 100 µM for the second.

Going from COc1ccc(OCC(=O)O)c2c1CCCC2=O to C[C@@H]1C[C@@H]([C@@H](CC2CC(=O)NC(=O)C2)OC(=O)CC(=O)c2ccccc2)C(=O)[C@@H](C)C1, the TGI falls from > 100 µM to 4.32 µM.

First: Cc1nc(Nc2ccc(Cl)cc2)sc1C(=O)NNC(=S)NN
Second: CCn1c(O)c(/C=N/NC(=O)C(C)c2ccc(CC(C)C)cc2)sc1=S (configuration not stated)
The TGI of the first is 6.2-fold higher: 34.8 µM for the first, 5.58 µM for the second.

Going from N=c1c2c(-c3ccccc3)c(-c3ccccc3)n(Cc3ccccc3)c2ncn1C1CCC(O)CC1 (configuration not stated) to CCOC(=O)Nc1cc2c(c(N)n1)N=C(c1ccccc1)CO2, the TGI rises from 5.61 µM to 13 µM (2.3-fold).

Compared with O=c1c(F)cn(Cc2ccc(C34CC5CC(CC(C5)C3)C4)c(O)c2)c(=O)n1Cc1ccc(C23CC4CC(CC(C4)C2)C3)c(O)c1, CC1CC2CCCC(O)=C2C(=O)O1 (configuration not stated) is higher in TGI: 32.9 µM for the first, > 100 µM for the second.
